# Data taken from article PMC9649518, “Knockout of ABC transporters by CRISPR/Cas9 contributes to reliable and accurate transporter substrate identification for drug discovery” (Frontiers in Pharmacology, 2022).
# Read-outs that look alike come from different tables or passages of the source.
# What was measured:
# Caco-2 WT cells [1] = experiment: Bidirectional transport assay across Caco-2 WT monolayers; conditions: WT Caco-2, 5 μM substrate, n = 3; for Efflux ratio: Papp(B-to-A)/Papp(A-to-B)
# Protocol: (§4) For MRP2, the nonfluorescent compound CDCFDA was used as the probe substrate. […] After treatment, samples were transferred to black-walled 96-well assay plates. A standard curve of 2-fold serial dilution from 10 µM CDCF was generated. The CDCF concentration was measured based on the fluorescence in a microplate fluorescence reader (Tecan, Switzerland) set at 485 nm and 530 nm for the excitation and emission wavelengths, respectively.
# Caco^Pgp−/− cells [2] = experiment: Bidirectional transport assay across P-gp KO Caco-2 monolayers; conditions: Caco^Pgp−/−, 5 μM substrate, n = 3
# Caco^BCRP−/− cells [3] = experiment: Bidirectional transport assay across BCRP KO Caco-2 monolayers; conditions: Caco^BCRP−/−, 5 μM substrate, n = 3
# Protocol: as §4
# Caco^MRP2−/− cells [4] = experiment: Bidirectional transport assay across MRP2 KO Caco-2 monolayers; conditions: Caco^MRP2−/−, 5 μM substrate, n = 3
# Protocol: as §4
# Caco^Pgp−/−BCRP−/− cells [5] = experiment: Bidirectional transport assay across P-gp/BCRP double KO Caco-2 monolayers; conditions: Caco^Pgp−/−BCRP−/−, 5 μM substrate, n = 3
# Protocol: as §4
# Caco^Pgp−/−MRP2−/− cells [6] = experiment: Bidirectional transport assay across P-gp/MRP2 double KO Caco-2 monolayers; conditions: Caco^Pgp−/−MRP2−/−, 5 μM substrate, n = 3
# Protocol: as §4
# [7] = tested on: Caco^MRP2−/−BCRP−/− cells; experiment: Bidirectional transport assay across MRP2/BCRP double KO Caco-2 monolayers; conditions: Caco^MRP2−/−BCRP−/−, 5 μM substrate, n = 3
# Protocol: as §4
# [8] = tested on: BCRP single- and double-KO Caco-2 cell lines; experiment: Bidirectional transport assay, BCRP single- and double-KO cell lines taken together; conditions: 5 μM substrate
# [9] = tested on: MRP2 single- and double-KO Caco-2 cell lines; experiment: Bidirectional transport assay, MRP2 single- and double-KO cell lines taken together; conditions: 5 μM substrate
# Protocol: For MRP2, the nonfluorescent compound CDCFDA was used as the probe substrate. This compound passively diffuses into cells and is hydrolyzed by intracellular esterases to the fluorescent product, CDCF, which is then rapidly excreted by MRP2 ([Sampson et al., 2015]). After treatment, samples were transferred to black-walled 96-well assay plates. A standard curve of 2-fold serial dilution from 10 µM CDCF was generated. The CDCF concentration was measured based on the fluorescence in a microplate fluorescence reader (Tecan, Switzerland) set at 485 nm and 530 nm for the excitation and emission wavelengths, respectively.
# Caco-2 WT cells [10] = tested on: Caco-2 WT cells
# Protocol: as §4
# Caco^Pgp−/− cells [11] = tested on: Caco^Pgp−/− cells
# Caco^BCRP−/− cells [12] = tested on: Caco^BCRP−/− cells
# Protocol: as §4
# Caco^MRP2−/− cells [13] = tested on: Caco^MRP2−/− cells
# Protocol: as §4
# Caco^Pgp−/−BCRP−/− cells [14] = tested on: Caco^Pgp−/−BCRP−/− cells
# Protocol: as §4
# Caco^Pgp−/−MRP2−/− cells [15] = tested on: Caco^Pgp−/−MRP2−/− cells
# Protocol: as §4
# [16] = tested on: Caco^MRP2−/−BCRP−/− cells
# Protocol: as §4
# [17] = Bidirectional transport assay, P-gp single- and double-KO cells taken together; format: in vitro ADME; conditions: human, pH 7.4, 5 μM substrate
# Protocol: (§1) The medium was replaced every second day.
# (§2) All these studies were conducted by following similar procedures. […] Then, HBSS was aspirated from both sides.
# (§3) The flow rate was 0.3 mL/min.
# [18] = target: T1, P-gp, BCRP, and MRP2 efflux transporters (Homo sapiens, UniProt Q92887); experiment: Transporter substrate identification with the panel of WT and KO Caco-2 cells; format: in vitro ADME; conditions: 5 μM
# T1 construct: endogenous in cells; host or cells: Caco-2 WT and CRISPR/Cas9 transporter-knockout Caco-2 clones
# Protocol: as §1, §2, §3
# [19] = tested on: P-gp, BCRP, and MRP2 efflux transporters; experiment: as above; format: in vitro ADME, human; conditions: 5 μM; ER ≥ 2 suggests active transport
# Protocol: as §1, §2, §3
# [20] = Bidirectional transport assay across Caco-2 WT monolayers; conditions: human
# Protocol: as §4
# [21] = Bidirectional transport assay across P-gp KO Caco-2 monolayers; conditions: human, pH 7.4
# [22] = Bidirectional transport assay across BCRP KO Caco-2 monolayers; conditions: human
# Protocol: as §4
# [23] = Bidirectional transport assay across MRP2 KO Caco-2 monolayers; conditions: human
# Protocol: as §4
# [24] = Bidirectional transport assay across P-gp/BCRP double KO Caco-2 monolayers; conditions: human, pH 7.4
# Protocol: as §4
# [25] = Bidirectional transport assay across P-gp/MRP2 double KO Caco-2 monolayers; conditions: human, pH 7.4
# Protocol: as §4
# [26] = Bidirectional transport assay across MRP2/BCRP double KO Caco-2 monolayers; conditions: human
# Protocol: as §4
# T1 sequence (Q92887 whole entry): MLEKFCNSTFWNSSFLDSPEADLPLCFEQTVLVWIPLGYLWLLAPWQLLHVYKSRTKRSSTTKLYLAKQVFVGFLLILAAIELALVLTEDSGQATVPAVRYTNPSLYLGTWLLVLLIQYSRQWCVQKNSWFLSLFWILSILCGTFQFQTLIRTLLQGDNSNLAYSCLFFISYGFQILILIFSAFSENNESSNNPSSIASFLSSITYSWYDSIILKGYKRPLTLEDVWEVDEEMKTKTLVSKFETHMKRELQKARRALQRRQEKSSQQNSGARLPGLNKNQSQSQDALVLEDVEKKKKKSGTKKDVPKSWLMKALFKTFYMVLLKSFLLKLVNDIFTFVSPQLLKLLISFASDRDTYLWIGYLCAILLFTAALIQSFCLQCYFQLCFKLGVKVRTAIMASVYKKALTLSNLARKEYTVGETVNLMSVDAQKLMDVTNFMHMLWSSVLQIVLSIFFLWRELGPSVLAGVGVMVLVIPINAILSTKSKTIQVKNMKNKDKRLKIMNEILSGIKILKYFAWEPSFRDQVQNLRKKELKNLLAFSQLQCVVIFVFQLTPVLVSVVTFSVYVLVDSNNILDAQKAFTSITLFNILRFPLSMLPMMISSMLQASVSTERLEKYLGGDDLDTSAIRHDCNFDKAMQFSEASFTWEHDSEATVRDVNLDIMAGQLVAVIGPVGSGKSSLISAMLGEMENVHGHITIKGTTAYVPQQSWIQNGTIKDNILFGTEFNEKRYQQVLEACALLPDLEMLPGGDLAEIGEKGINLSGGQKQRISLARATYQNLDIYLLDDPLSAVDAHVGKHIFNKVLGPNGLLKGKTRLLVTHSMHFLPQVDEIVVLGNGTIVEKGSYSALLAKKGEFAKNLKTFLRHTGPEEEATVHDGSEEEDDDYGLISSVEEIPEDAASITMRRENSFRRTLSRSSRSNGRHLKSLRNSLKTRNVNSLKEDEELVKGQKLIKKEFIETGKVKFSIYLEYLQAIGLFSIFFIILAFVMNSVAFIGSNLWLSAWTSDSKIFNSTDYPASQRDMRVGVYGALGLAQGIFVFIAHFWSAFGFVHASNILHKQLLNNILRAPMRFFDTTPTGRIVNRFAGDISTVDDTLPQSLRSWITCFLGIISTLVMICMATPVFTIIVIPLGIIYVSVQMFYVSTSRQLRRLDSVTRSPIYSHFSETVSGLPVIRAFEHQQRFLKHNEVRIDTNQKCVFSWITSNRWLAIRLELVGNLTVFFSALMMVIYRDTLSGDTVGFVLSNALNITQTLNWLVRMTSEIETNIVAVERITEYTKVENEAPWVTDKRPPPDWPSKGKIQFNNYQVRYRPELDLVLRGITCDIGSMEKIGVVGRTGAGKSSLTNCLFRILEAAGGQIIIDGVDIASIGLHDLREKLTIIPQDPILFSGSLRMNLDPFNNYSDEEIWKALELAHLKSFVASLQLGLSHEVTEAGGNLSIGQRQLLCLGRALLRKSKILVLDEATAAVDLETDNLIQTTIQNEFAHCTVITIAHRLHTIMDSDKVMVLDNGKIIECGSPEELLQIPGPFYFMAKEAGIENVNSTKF
compound,measurement,setting,value
"C[C@]12CC[C@@H]3c4ccc(OS(=O)(=O)O)cc4CC[C@H]3[C@@H]1CCC2=O [Estrone 3-Sulfate, estrone 3-sulfate]",Papp A-to-B,"Caco-2 WT cells [1]; 1 h, 37°C, HBSS pH 7.4",0.67 ± 0.12 ×10^−6cm/s
same,Papp B-to-A,"Caco-2 WT cells [1]; 1 h, 37°C, HBSS pH 7.4",10.87 ± 0.20 ×10^−6cm/s
same,Efflux ratio,Caco-2 WT cells [1],16.65 ± 2.90
same,Efflux ratio,Caco-2 WT cells [1]; listed as E3S,16.6
same,Papp A-to-B,"Caco^Pgp−/− cells [2]; 1 h, 37°C, HBSS pH 7.4",1.53 ± 0.24 ×10^−6cm/s
same,Papp B-to-A,"Caco^Pgp−/− cells [2]; 1 h, 37°C, HBSS pH 7.4",22.48 ± 1.01 ×10^−6cm/s
same,Efflux ratio,Caco^Pgp−/− cells [2],14.90 ± 1.63
same,Papp A-to-B,"Caco^BCRP−/− cells [3]; 1 h, 37°C, HBSS pH 7.4",1.15 ± 0.11 ×10^−6cm/s
same,Papp B-to-A,"Caco^BCRP−/− cells [3]; 1 h, 37°C, HBSS pH 7.4",1.58 ± 0.08 ×10^−6cm/s
same,Efflux ratio,Caco^BCRP−/− cells [3],1.36 ± 0.18
same,Papp A-to-B,"Caco^MRP2−/− cells [4]; 1 h, 37°C, HBSS pH 7.4",2.91 ± 0.32 ×10^−6cm/s
same,Papp B-to-A,"Caco^MRP2−/− cells [4]; 1 h, 37°C, HBSS pH 7.4",15.32 ± 3.10 ×10^−6cm/s
same,Efflux ratio,Caco^MRP2−/− cells [4],5.24 ± 0.59
same,Papp A-to-B,"Caco^Pgp−/−BCRP−/− cells [5]; 1 h, 37°C, HBSS pH 7.4",1.88 ± 0.02 ×10^−6cm/s
same,Papp B-to-A,"Caco^Pgp−/−BCRP−/− cells [5]; 1 h, 37°C, HBSS pH 7.4",1.54 ± 0.30 ×10^−6cm/s
same,Efflux ratio,Caco^Pgp−/−BCRP−/− cells [5],0.820 ± 0.15
same,Papp A-to-B,"Caco^Pgp−/−MRP2−/− cells [6]; 1 h, 37°C, HBSS pH 7.4",3.23 ± 0.08 ×10^−6cm/s
same,Papp B-to-A,"Caco^Pgp−/−MRP2−/− cells [6]; 1 h, 37°C, HBSS pH 7.4",25.34 ± 2.06 ×10^−6cm/s
same,Efflux ratio,Caco^Pgp−/−MRP2−/− cells [6],7.830 ± 0.46
same,Papp A-to-B,"[7]; 1 h, 37°C, HBSS pH 7.4",0.97 ± 0.04 ×10^−6cm/s
same,Papp B-to-A,"[7]; 1 h, 37°C, HBSS pH 7.4",0.92 ± 0.49 ×10^−6cm/s
same,Efflux ratio,[7],0.96 ± 0.51
same,Efflux ratio,[8],0.8–1.3
same,Efflux ratio compared with WT,[9],reduced significantly
"5-(and-6)-carboxy-2′,7′-dichlorofluorescein [CDCF]",Papp A-to-B,Caco-2 WT cells [10],1.05 ± 0.34 ×10^−6cm/s
same,Papp B-to-A,Caco-2 WT cells [10],8.25 ± 0.63 ×10^−6cm/s
same,Papp A-to-B,Caco^Pgp−/− cells [11],1.94 ± 0.10 ×10^−6cm/s
same,Papp B-to-A,Caco^Pgp−/− cells [11],11.95 ± 1.61 ×10^−6cm/s
same,Papp A-to-B,Caco^BCRP−/− cells [12],2.14 ± 0.08 ×10^−6cm/s
same,Papp B-to-A,Caco^BCRP−/− cells [12],10.63 ± 0.96 ×10^−6cm/s
same,Papp A-to-B,Caco^MRP2−/− cells [13],2.33 ± 0.62 ×10^−6cm/s
same,Papp B-to-A,Caco^MRP2−/− cells [13],1.10 ± 0.13 ×10^−6cm/s
same,Papp A-to-B,Caco^Pgp−/−BCRP−/− cells [14],2.02 ± 0.20 ×10^−6cm/s
same,Papp B-to-A,Caco^Pgp−/−BCRP−/− cells [14],9.42 ± 0.55 ×10^−6cm/s
same,Papp A-to-B,Caco^Pgp−/−MRP2−/− cells [15],2.41 ± 0.55 ×10^−6cm/s
same,Papp B-to-A,Caco^Pgp−/−MRP2−/− cells [15],1.64 ± 0.46 ×10^−6cm/s
same,Papp A-to-B,[16],3.48 ± 0.51 ×10^−6cm/s
same,Papp B-to-A,[16],3.05 ± 0.80 ×10^−6cm/s
Cc1c(O)cccc1C(=O)N[C@@H](CSc1ccccc1)[C@H](O)CN1C[C@H]2CCCC[C@H]2C[C@H]1C(=O)NC(C)(C)C [Nelfinavir],"efflux ratio at 1 h, 5 μM",[17],~1
same,Substrate of MRP2 (conclusion from ERs in KO cells),[18],cannot mediate
same,Efflux transporter substrate identification (conclusion from ERs in WT and KO cells),[19],P-gp was the main transporter
same,"Papp A→B at 1 h, 5 μM","[20]; Caco-2, pH 7.4",2.78 ± 0.39 ×10⁻⁶ cm/s
same,"Papp B→A at 1 h, 5 μM","[20]; Caco-2, pH 7.4",12.2 ± 1.86 ×10⁻⁶ cm/s
same,"efflux ratio at 1 h, 5 μM","[20]; Caco-2, pH 7.4, Efflux ratio, WT Caco-2, 5 μM substrate, Papp(B-to-A)/Papp(A-to-B), n = 3",4.47 ± 1.19
same,"Papp A→B at 1 h, 5 μM",[21],4.17 ± 0.17 ×10⁻⁶ cm/s
same,"Papp B→A at 1 h, 5 μM",[21],2.18 ± 0.43 ×10⁻⁶ cm/s
same,"efflux ratio at 1 h, 5 μM",[21],0.41 ± 0.04
same,"Papp A→B at 1 h, 5 μM",[22]; pH 7.4,2.21 ± 0.41 ×10⁻⁶ cm/s
same,"Papp B→A at 1 h, 5 μM",[22]; pH 7.4,4.88 ± 0.17 ×10⁻⁶ cm/s
same,"efflux ratio at 1 h, 5 μM","[22]; pH 7.4, Efflux ratio, Caco^BCRP−/−, 5 μM substrate, n = 3",~2
same,Efflux ratio,Caco^BCRP−/− cells [3],2.25 ±0.34
same,"Papp B→A at 1 h, 5 μM",[23]; pH 7.4,14.7 ± 0.99 ×10⁻⁶ cm/s
same,"efflux ratio at 1 h, 5 μM",[23]; pH 7.4,3.25 ± 0.31
same,"Papp A→B at 1 h, 5 μM","[23]; pH 7.4, Papp A-to-B, Caco^MRP2−/−, 5 μM substrate, 1 h, 37°C, HBSS pH 7.4, n = 3",4.53 ± 0.26 ×10⁻⁶ cm/s
same,"Papp A→B at 1 h, 5 μM",[24],7.54 ± 0.24 ×10⁻⁶ cm/s
same,"Papp B→A at 1 h, 5 μM",[24],3.22 ± 0.62 ×10⁻⁶ cm/s
same,"efflux ratio at 1 h, 5 μM",[24],0.43 ± 0.09
same,"Papp A→B at 1 h, 5 μM",[25],4.23 ± 0.22 ×10⁻⁶ cm/s
same,"Papp B→A at 1 h, 5 μM",[25],4.51 ± 0.63 ×10⁻⁶ cm/s
same,"efflux ratio at 1 h, 5 μM",[25],1.07 ± 0.42
same,"Papp B→A at 1 h, 5 μM",[26]; pH 7.4,17.9 ± 1.89 ×10⁻⁶ cm/s
same,"efflux ratio at 1 h, 5 μM",[26]; pH 7.4,6.41 ± 0.35
same,"Papp A→B at 1 h, 5 μM","[26]; pH 7.4, Papp A-to-B, Caco^MRP2−/−BCRP−/−, 5 μM substrate, 1 h, 37°C, HBSS pH 7.4, n = 3",2.79 ± 0.28 ×10⁻⁶ cm/s
